Activity calls are given as the source filed them. No rule for the calls is given here.
System: CCRIS mutagenicity, Ames/micronucleus/aberration tests
Test: CCRIS mutagenicity studies
Details: Test System: AMES SALMONELLA TYPHIMURIUM
[1] = Strain/Indicator: TA98, Metabolic Activation: NONE, Method: STANDARD PLATE
[2] = Strain/Indicator: TA98, Metabolic Activation: RAT, LIVER, S-9, AROCLOR 1254, Method: STANDARD PLATE
[3] = Strain/Indicator: TA100, Metabolic Activation: NONE, Method: STANDARD PLATE
[4] = Strain/Indicator: TA100, Metabolic Activation: RAT, LIVER, S-9, AROCLOR 1254, Method: STANDARD PLATE
[5] = Strain/Indicator: TA97, Metabolic Activation: NONE, Method: PREINCUBATION
[6] = Strain/Indicator: TA97, Metabolic Activation: RAT, LIVER, S-9, AROCLOR 1254 (10%), Method: PREINCUBATION
[7] = Strain/Indicator: TA98, Metabolic Activation: NONE, Method: PREINCUBATION
[8] = Strain/Indicator: TA98, Metabolic Activation: RAT, LIVER, S-9, AROCLOR 1254 (10%), Method: PREINCUBATION
[9] = Strain/Indicator: TA100, Metabolic Activation: NONE, Method: PREINCUBATION
[10] = Strain/Indicator: TA100, Metabolic Activation: RAT, LIVER, S-9, AROCLOR 1254 (10%), Method: PREINCUBATION

Row | Compound | mutagenic call [1] | mutagenic call [2] | mutagenic call [3] | mutagenic call [4] | mutagenic call [5] | mutagenic call [6] | mutagenic call [7] | mutagenic call [8] | mutagenic call [9] | mutagenic call [10] | other results
1 | C1CCC(C2(C3CCCCC3)COCCOCCOCCOCCOCCOCCO2)CC1 | inactive; negative | inactive; negative | inactive; negative | inactive; negative |  |  |  |  |  |  | mutagenic call (Strain/Indicator: TA1530, Metabolic Activation: NONE, Method: STANDARD PLATE): inactive; negative; mutagenic call (Strain/Indicator: TA1530, Metabolic Activation: RAT, LIVER, S-9, AROCLOR 1254, Method: STANDARD PLATE): inactive; negative; mutagenic call (Strain/Indicator: TA1537, Metabolic Activation: NONE, Method: STANDARD PLATE): inactive; negative; mutagenic call (Strain/Indicator: TA1537, Metabolic Activation: RAT, LIVER, S-9, AROCLOR 1254, Method: STANDARD PLATE): inactive; negative
2 | Nc1cc(Cl)c([N+](=O)[O-])cc1O |  |  |  |  | active; positive | active; positive | active; positive | active; positive | inactive; negative | inactive; negative | mutagenic call (Strain/Indicator: TA97, Metabolic Activation: HAMSTER, LIVER, S-9, AROCLOR 1254 (10%), Method: PREINCUBATION): active; positive; mutagenic call (Strain/Indicator: TA98, Metabolic Activation: HAMSTER, LIVER, S-9, AROCLOR 1254 (10%), Method: PREINCUBATION): active; positive; mutagenic call (Strain/Indicator: TA100, Metabolic Activation: HAMSTER, LIVER, S-9, AROCLOR 1254 (10%), Method: PREINCUBATION): active; positive; mutagenic call (Strain/Indicator: TA1535, Metabolic Activation: HAMSTER, LIVER, S-9, AROCLOR 1254 (10%), Method: PREINCUBATION): inactive; negative; mutagenic call (Strain/Indicator: TA1535, Metabolic Activation: NONE, Method: PREINCUBATION): inactive; negative; mutagenic call (Strain/Indicator: TA1535, Metabolic Activation: RAT, LIVER, S-9, AROCLOR 1254 (10%), Method: PREINCUBATION): inactive; negative
3 | COc1cc([C@H]2OC[C@H]3[C@@H]2CO[C@@H]3c2cc(OC)c(OC)c(OC)c2)cc(OC)c1OC | inactive; negative |  | inactive; negative |  |  |  |  |  |  |  | mutagenic call (Strain/Indicator: TA97A, Metabolic Activation: NONE, Method: STANDARD PLATE): inactive; negative; mutagenic call (Strain/Indicator: TA97A, Metabolic Activation: RAT LIVER S-9 (AROCLOR), Method: STANDARD PLATE): inactive; negative; mutagenic call (Strain/Indicator: TA98, Metabolic Activation: RAT LIVER S-9 (AROCLOR), Method: STANDARD PLATE): inactive; negative; mutagenic call (Strain/Indicator: TA100, Metabolic Activation: RAT LIVER S-9 (AROCLOR), Method: STANDARD PLATE): inactive; negative; mutagenic call (Strain/Indicator: TA102, Metabolic Activation: NONE, Method: STANDARD PLATE): inactive; negative; mutagenic call (Strain/Indicator: TA102, Metabolic Activation: RAT LIVER S-9 (AROCLOR), Method: STANDARD PLATE): inactive; negative; mutagenic call (Strain/Indicator: TA1535, Metabolic Activation: NONE, Method: STANDARD PLATE): inactive; negative; mutagenic call (Strain/Indicator: TA1535, Metabolic Activation: RAT LIVER S-9 (AROCLOR), Method: STANDARD PLATE): inactive; negative
4 | O=c1c2[nH]c3ccccc3c2nnn1/N=C/c1ccc(O)cc1 |  |  |  |  | active; positive | active; positive | active; positive | active; positive | active; positive | active; positive | mutagenic call (Strain/Indicator: TA102, Metabolic Activation: NONE, Method: PREINCUBATION): active; positive; mutagenic call (Strain/Indicator: TA102, Metabolic Activation: RAT, LIVER, S-9, AROCLOR 1254 (10%), Method: PREINCUBATION): active; positive
5 | C[C@H](Br)C(=O)NCc1ccccc1 |  |  | active; positive |  |  |  |  |  |  |  | 
6 | O=C(/C=C/c1ccc([N+](=O)[O-])cc1)c1ccc([N+](=O)[O-])cc1 | active; positive | inactive; negative | inactive; negative | inactive; negative |  |  |  |  |  |  | 

— PubChem BioAssay AID1259407 (Chemical Carcinogenesis Research Information System (CCRIS), 2018)
